Assay [1] addresses T1, human DP2 receptor (Homo sapiens, UniProt Q9Y5Y4).
T1 construct: expressed in transfected cells
T1 sequence (Q9Y5Y4 1-395): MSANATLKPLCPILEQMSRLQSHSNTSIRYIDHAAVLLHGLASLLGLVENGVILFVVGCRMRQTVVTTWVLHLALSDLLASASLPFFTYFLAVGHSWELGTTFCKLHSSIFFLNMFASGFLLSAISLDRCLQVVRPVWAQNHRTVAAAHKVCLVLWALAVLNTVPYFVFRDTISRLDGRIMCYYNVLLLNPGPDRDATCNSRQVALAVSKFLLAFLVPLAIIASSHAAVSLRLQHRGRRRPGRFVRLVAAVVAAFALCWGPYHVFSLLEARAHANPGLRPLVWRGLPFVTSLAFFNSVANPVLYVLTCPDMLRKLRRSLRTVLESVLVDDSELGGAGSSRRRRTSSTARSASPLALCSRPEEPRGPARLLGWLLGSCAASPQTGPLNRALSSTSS
Briefly: DP2/CRTH2 radioligand binding assay using [3H]PGD2. Conditions: hDP2 (CRTH2) binding assay. The procedure:
The ability of a compound to bind to the human DP2 receptor is assessed via a radioligand binding assay using [^3H]PGD2. HEK293 cells stably expressing recombinant human DP2 are resuspended in 10 mM Hepes, 7.4 containing 1 mM DTT, lysed and centrifuged at 75,000×g to pellet the membranes. The membranes are resuspended in 10 mM Hepes, 7.4 containing 1 mM DTT and 10% glycerol to approximately 5 mg protein/ml. Membranes (2-10 μg protein/well) are incubated in 96-well plates with 1 nM [^3H]PGD2 and test compound in Assay Buffer (50 mM Hepes, 10 mM MnCl2, 1 mM EDTA, plus or minus 0.2% human serum albumin, pH 7.4) for 60 minutes at room temperature. The reactions are terminated by rapid filtration through Whatman GF/C glass fibre filter plates. The filter plates were pre-soaked in 0.33% polythylenimine for 30 minutes at room temperature then washed in Wash Buffer (50 mM Hepes, 0.5 M NaCl pH 7.4) prior to harvesting. After harvesting, the filter plates are washed 3 times with 1 ml cold Wash Buffer then dried. Scintillant is then added to the plates and the radioactivity retained on the filters is determined on a Packard TopCount (Perkin Elmer). Specific binding is determined as total radioactive binding minus non-specific binding in the presence of 10 μM PGD2. IC50s were determined using GraphPad prism analysis of drug titration curves.

Assay [2] has as its target T2, recombinant human CRTH2 receptor (Homo sapiens, UniProt Q9Y5Y4).
T2 construct: expressed in transfected cells
T2 sequence (Q9Y5Y4 1-395): T1 sequence (Q9Y5Y4 1-395)
Briefly: GTPγS binding assay. The format is biochemical. Conditions: +HSA; read-out: hDP2 GTPγS μM (+HSA). The procedure: The ability of a compound to inhibit binding of GTP to DP2 is assessed via a membrane GTPγS assay. CHO cells stably expressing the recombinant human CRTH2 receptor are resuspended in 10 mM Hepes, 7.4 containing 1 mM DTT, lysed and centrifuged at 75,000×g to pellet the membranes. The membranes are resuspended in 10 mM Hepes, 7.4 containing 1 mM DTT and 10% glycerol. Membranes (˜12.5 μg per well) are incubated in 96-well plates with 0.05 nM [^35S]-GTPγS, 80 nM PGD2, 5 μM GDP, and test compound in Assay Buffer (50 mM Hepes, pH 7.4, 100 mM NaCl, 5 mM MgCl2 and 0.2% human serum albumin) for 60 minutes at 30° C. The reactions are terminated by rapid filtration through Whatman GF/B glass fibre filter plates. The filter plates are washed 3 times with 1 ml cold Assay Buffer and dried. Scintillant is then added to the plates and the radioactivity retained on the filters is determined on a Packard TopCount (Perkin Elmer). Specific binding is determined as total radioactive binding minus non-specific binding in the absence of the ligand (80 nM PGD2). IC50s were determined using Graphpad prism analysis of drug titration curves.

Assay [3] has as its target T3, human DP1 receptor (Homo sapiens, UniProt Q13258).
T3 construct: tissue Biological Specialty Corporation; host or cells: human platelets, membranes
T3 sequence (Q13258 1-359): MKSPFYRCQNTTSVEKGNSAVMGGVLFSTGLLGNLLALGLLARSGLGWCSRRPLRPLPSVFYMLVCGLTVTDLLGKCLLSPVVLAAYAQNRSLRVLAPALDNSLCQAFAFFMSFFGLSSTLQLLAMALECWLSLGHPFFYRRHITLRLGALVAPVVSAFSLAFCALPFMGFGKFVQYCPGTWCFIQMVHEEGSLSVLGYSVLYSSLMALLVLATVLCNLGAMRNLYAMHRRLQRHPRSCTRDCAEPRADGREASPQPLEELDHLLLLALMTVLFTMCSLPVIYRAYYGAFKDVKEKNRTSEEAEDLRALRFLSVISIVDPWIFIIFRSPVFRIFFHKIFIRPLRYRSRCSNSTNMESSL
The assay can be described thus: DP1 radioligand binding assay using [3H]BWA868C. The conditions noted are these: hDP1 binding. The procedure:
The ability of a compound to bind to the human DP1 receptor was evaluated via a radioligand membrane binding assay using the DP1 selective synthetic ligand [^3H]BW A868C. Packed human platelets (Biological Specialty Corporation), were resuspended in 6 volumes of Hepes/HBSS buffer (10 mM Hepes, 1 mM DTT in Hanks Balanced Salt Solution (HBSS)), lysed and centrifuged at 75,000×g to pellet the membranes. Membranes were resuspended in Hepes/HBSS buffer to approximately 12 mg protein/ml. Membranes (20 μg protein/well) are incubated in 96-well plates with 2 nM [^3H]BWA868C and test compound in Assay Buffer (50 mM Hepes, 10 mM MnCl2, 1 mM EDTA, plus or minus 0.2% human serum albumin, pH 7.4) for 60 minutes at room temperature. The reactions are terminated by rapid filtration through Whatman GF/C glass fibre filter plates. The filter plates were pre-soaked in 0.33% polethylenimine for 30 minutes at room temperature then washed in Wash Buffer (50 mM Hepes, 0.5 M NaCl pH 7.4) prior to harvesting. After harvesting, the filter plates are washed 3 times with 1 ml cold Wash Buffer then dried. Scintillant is then added to the plates and the radioactivity retained on the filters is determined on a Packard TopCount (Perkin Elmer). Specific binding is determined as total radioactive binding minus non-specific binding in the presence of 10 μM BW A868C. IC50s were determined using GraphPad prism analysis of drug titration curves.

As for `O=C(O)Cc1cccc(Oc2ccc(C(F)(F)F)cc2CN2CCOC2=O)c1` [Compound 1-5, {3-[2-(2-Oxo-oxazolidin-3-ylmethyl)-4-trifluoromethyl-phenoxy]-phenyl}-acetic acid], the IC50 is under 300 nM in assay [1], under 0.3 µM in assay [2] and over 1000 nM in assay [3].

Regarding `CCNC(=O)c1ccc(Oc2cccc(CC(=O)O)c2)c(CN2CCOC2=O)c1` [Compound 1-6, {3-[4-Ethylcarbamoyl-2-(2-oxo-oxazolidin-3-ylmethyl)-phenoxy]-phenyl}-acetic acid], the IC50 is 300 to 1000 nM in assay [1], 0.3 to 1 µM in assay [2] and over 1000 nM in assay [3].

With `O=C(O)Cc1cccc(Oc2ccc(-c3ccccc3)cc2CN2CCOC2=O)c1` [Compound 1-7, {3-[3-(2-Oxo-oxazolidin-3-ylmethyl)-biphenyl-4-yloxy]-phenyl}-acetic acid], the IC50 is under 300 nM in assay [1], 0.3 to 1 µM in assay [2] and over 1000 nM in assay [3].

For the molecule `O=C(O)Cc1cccc(Oc2ccc(-c3cccnc3)cc2CN2CCOC2=O)c1` [Compound 1-8, {3-[2-(2-Oxo-oxazolidin-3-ylmethyl)-4-pyridin-3-yl-phenoxy]-phenyl}-acetic acid], the IC50 is under 300 nM in assay [1], over 1 µM in assay [2] and over 1000 nM in assay [3].

With `COc1ccc(CC(=O)O)cc1Oc1ccc(C(F)(F)F)cc1CN1CCOC1=O` [Compound 1-9, {4-Methoxy-3-[2-(2-oxo-oxazolidin-3-ylmethyl)-4-trifluoromethyl-phenoxy]-phenyl}-acetic acid], the results for the IC50 in assay [1], in assay [2] and in assay [3] were under 300 nM, under 0.3 µM and over 1000 nM, respectively.

On to `CC(C(=O)O)c1cccc(Oc2ccc(C(F)(F)F)cc2CN2CCOC2=O)c1` (stereo not drawn) [Compound 1-10, 2-{3-[2-(2-Oxo-oxazolidin-3-ylmethyl)-4-trifluoromethyl-phenoxy]-phenyl}-propionic acid], for which the IC50 in assay [1] was under 300 nM; in assay [2], over 1 µM; in assay [3], over 1000 nM.

As to `O=C(O)Cc1cc(Oc2ccc(C(F)(F)F)cc2CN2CCOC2=O)ccc1-c1ccccc1` [Compound 1-13, {4-[2-(2-Oxo-oxazolidin-3-ylmethyl)-4-trifluoromethyl-phenoxy]-biphenyl-2-yl}-acetic acid], the IC50 in assay [1] is under 300 nM; in assay [2], 0.3 to 1 µM; in assay [3], under 300 nM.

`COc1ccc(CC(=O)O)cc1Oc1ccc(Br)cc1CN1CCOC1=O` [Compound 1-14, {3-[4-Bromo-2-(2-oxo-oxazolidin-3-ylmethyl)-phenoxy]-4-methoxy-phenyl}-acetic acid]: the IC50 is under 300 nM in assay [1], under 0.3 µM in assay [2] and over 1000 nM in assay [3].

For `C[C@H]1[C@@H](c2ccccc2)OC(=O)N1Cc1cc(Br)ccc1Oc1cccc(CC(=O)O)c1` [Compound 1-15, {3-[4-Bromo-2-((4S,5R)-4-methyl-2-oxo-5-phenyl-oxazolidin-3-ylmethyl)-phenoxy]-phenyl}-acetic acid], the IC50 in assay [1] is under 300 nM; in assay [2] it was 0.3 to 1 µM; in assay [3] it was under 300 nM.

Regarding `C[C@H]1[C@@H](c2ccc(Cl)cc2)OC(=O)N1Cc1cc(Br)ccc1Oc1cccc(CC(=O)O)c1` [Compound 1-16, (3-{4-Bromo-2-[(4S,5R)-5-(4-chloro-phenyl)-4-methyl-2-oxo-oxazolidin-3-ylmethyl]-phenoxy}-phenyl)-acetic acid], the values for the IC50 in assay [1], in assay [2] and in assay [3] were under 300 nM, over 1 µM and under 300 nM, respectively.

`C[C@H]1[C@@H](c2cc(F)cc(F)c2)OC(=O)N1Cc1cc(Br)ccc1Oc1cccc(CC(=O)O)c1` [Compound 1-17, (3-{4-Bromo-2-[(4S,5R)-5-(3,5-difluoro-phenyl)-4-methyl-2-oxo-oxazolidin-3-ylmethyl]-phenoxy}-phenyl)-acetic acid]: the IC50 was under 300 nM in assay [1], under 0.3 µM in assay [2] and under 300 nM in assay [3].

On to `C[C@H]1[C@@H](c2cc(C(F)(F)F)cc(C(F)(F)F)c2)OC(=O)N1Cc1cc(Br)ccc1Oc1cccc(CC(=O)O)c1` [Compound 1-18, (3-{2-[(4S,5R)-5-(3,5-Bis-trifluoromethyl-phenyl)-4-methyl-2-oxo-oxazolidin-3-ylmethyl]-4-bromo-phenoxy}-phenyl)-acetic acid], for which the IC50 is under 300 nM in assay [1], under 0.3 µM in assay [2] and under 300 nM in assay [3].

For `C[C@H]1[C@@H](c2ccccc2)OC(=O)N1Cc1cc(-c2cncn2C)ccc1Oc1cccc(CC(=O)O)c1` [Compound 1-22, {3-[4-(3-Methyl-3H-imidazol-4-yl)-2-((4S,5R)-4-methyl-2-oxo-5-phenyl-oxazolidin-3-ylmethyl)-phenoxy]-phenyl}-acetic acid], the IC50 in assay [1] was under 300 nM; in assay [2], over 1 µM; in assay [3], 300 to 1000 nM.

Take `C[C@H]1[C@@H](c2ccccc2)OC(=O)N1Cc1cc(Br)ccc1Oc1ccc(Cl)c(CC(=O)O)c1` [Compound 1-24, {5-[4-Bromo-2-((4S,5R)-4-methyl-2-oxo-5-phenyl-oxazolidin-3-ylmethyl)-phenoxy]-2-chloro-phenyl}-acetic acid]: the IC50 in assay [1] is 300 to 1000 nM; in assay [2] it was over 1 µM; in assay [3], under 300 nM.

On to `C[C@H]1[C@@H](c2ccccc2)OC(=O)N1Cc1cc(Br)ccc1Oc1ccc(C(F)(F)F)c(CC(=O)O)c1` [Compound 1-25, {5-[4-Bromo-2-((4S,5R)-4-methyl-2-oxo-5-phenyl-oxazolidin-3-ylmethyl)-phenoxy]-2-trifluoromethyl-phenyl}-acetic acid], for which the values for the IC50 in assay [1], in assay [2] and in assay [3] were 300 to 1000 nM, over 1 µM and over 1000 nM, respectively.

Take `C[C@H]1[C@@H](c2ccccc2)OC(=O)N1Cc1cc(Br)ccc1Oc1cc(F)cc(CC(=O)O)c1` [Compound 1-26, {3-[4-Bromo-2-((4S,5R)-4-methyl-2-oxo-5-phenyl-oxazolidin-3-ylmethyl)-phenoxy]-5-fluoro-phenyl}-acetic acid]: the figures for the IC50 in assay [1], in assay [2] and in assay [3] were under 300 nM, under 0.3 µM and under 300 nM, respectively.

The values are drawn from patent US8242145B2, “Cyclic diaryl ether compounds as antagonists of prostaglandin D2 receptors” (Panmira Pharmaceuticals, LLC, priority 2008, dated 2012).
